The source made the active and inactive calls.
Experiments:
[1] = viability loss in HEK293T cells – cell-based, cherry-picks, cytotoxicity control for HIV Vif inhibitor project, dose response (AID 652208); format: functional
[2] = viability of PTEN-deleted HCT116 cells – cell-based, HCT116 PTEN knockout, dose response (AID 1047); format: functional;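 also: HCT116 colon tumor cells with PTEN knocked out; cells exposed to compound for 60 hours before readout; potency for loss of cell viability measured by luminescence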
[3] = viability of HCT116 lacking mutant beta-catenin – cell-based, human colon tumor, dose response (AID 1045); format: functional;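 also: HCT116 colon tumor cells with beta catenin knocked out; cells exposed to compound for 60 hours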
[4] = molecular target: SWI/SNF-related matrix-associated actin-dependent regulator of chromatin subfamily A member 2 (Homo sapiens, UniProt P51531); experiment: Luminescence-based cell-based high throughput dose response assay to identify activators of the function of SWI/SNF related, matrix associated, actin dependent regulator of chromatin, subfamily a, member 2 (SMARCA2, BRM).; format: functional
[5] = Counterscreen for activators of the function of SWI/SNF related, matrix associated, actin dependent regulator of chromatin, subfamily a, member 2 (SMARCA2, BRM): Luminescence-based cell-based high throughput dose response assay to identify non-selective compounds using the VP16 reporter assay.; format: functional
cells [6] = format: functional, cell-based
[7] = molecular target: T1, Trace amine-associated receptor 1 (Homo sapiens, UniProt Q96RJ0); experiment: Fluorescence-based cell-based high throughput dose response assay to identify agonists of the human trace amine associated receptor 1 (TAAR1).; format: functional
[8] = molecular target: T1, Trace amine-associated receptor 1; experiment: Counterscreen for agonists of the human trace amine associated receptor 1 (hTAAR1): Fluorescence-based cell-based high throughput dose response assay to identify hTAAR1 agonist that also desensitize TAAR1 receptor response.; format: functional
cells [9] = format: functional, cell-based; remark: listed apart in the source
Protein Wnt-3a = Protein Wnt-3a (Mus musculus, UniProt P27467); experiment: SAR analysis of small molecule antagonists of Gli-SUFU in a Wnt3a luminescent reporter assay.; format: functional
[10] = molecular target: T2, RNA-binding protein pos-1 (Caenorhabditis elegans, UniProt G5EF15); experiment: disruptors of C. elegans POS-1 RNA interaction – biochemical, fluorescence polarization, dose response (AID 1964);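 also: purified POS-1 fused to maltose binding protein made in E. coli; potency of compounds blocking POS-1 binding to fluorescent RNA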
T2 sequence (G5EF15 whole entry): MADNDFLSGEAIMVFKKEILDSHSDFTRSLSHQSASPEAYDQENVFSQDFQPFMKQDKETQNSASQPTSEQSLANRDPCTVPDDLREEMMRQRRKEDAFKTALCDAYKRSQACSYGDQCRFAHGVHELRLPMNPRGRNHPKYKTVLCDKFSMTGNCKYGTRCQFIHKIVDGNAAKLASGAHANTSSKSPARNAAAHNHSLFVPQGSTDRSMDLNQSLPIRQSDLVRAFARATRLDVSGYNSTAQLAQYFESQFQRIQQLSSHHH

cells [11] = format: functional, cell-based; remark: listed apart in the source
[12] = molecular target: T3, Zinc finger protein mex-5 (Caenorhabditis elegans, UniProt Q9XUB2); experiment: potency of MEX-5 RNA-binding blockers – biochemical, C. elegans, fluorescence polarization, dose response (AID 1960)
T3 sequence (Q9XUB2 whole entry): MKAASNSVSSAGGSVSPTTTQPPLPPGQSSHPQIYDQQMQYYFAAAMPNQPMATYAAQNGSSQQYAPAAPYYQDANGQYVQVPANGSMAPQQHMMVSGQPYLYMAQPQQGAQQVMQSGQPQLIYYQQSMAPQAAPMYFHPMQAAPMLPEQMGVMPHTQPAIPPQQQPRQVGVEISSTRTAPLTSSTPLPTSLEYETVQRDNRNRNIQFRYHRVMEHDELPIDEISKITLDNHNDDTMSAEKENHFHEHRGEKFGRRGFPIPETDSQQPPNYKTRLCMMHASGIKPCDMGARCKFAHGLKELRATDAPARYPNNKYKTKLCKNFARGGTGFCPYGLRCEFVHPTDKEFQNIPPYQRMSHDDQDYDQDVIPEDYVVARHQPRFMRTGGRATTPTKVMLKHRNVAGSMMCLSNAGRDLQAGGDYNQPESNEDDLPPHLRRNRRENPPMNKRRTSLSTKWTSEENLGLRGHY

cells [13] = format: functional, cell-based; remark: listed apart in the source
[14] = molecular target: FAD-linked sulfhydryl oxidase ALR (Homo sapiens, UniProt P55789); experiment: ALR-catalysed DTT oxidation blockers – biochemical, H2O2 detection, luminescence, cherry-pick, dose response (AID 493248)
[15] = reduction of Shn3 3'UTR-driven luciferase in osteoblasts – cell-based, Clone20 osteoblasts, firefly luciferase, cherry-picked, dose response (AID 624132); format: functional;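 also: firefly luciferase luminescence from reporter carrying the Shn3 3'UTR in osteoblasts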
[16] = loss of viability in HepG2 cells – cell-based, CellTiter-Glo, cherry-picked, cytotoxicity control for Shn3 inhibitor project, dose response (AID 624134); format: functional
[17] = non-specific 3'UTR reporter inhibition in Clone20-Shn3RL – cell-based, Renilla luciferase, cherry-picked, counter-screen for Shn3 inhibitor project, dose response (AID 624133); format: functional
Albumin = Albumin (Bos taurus, UniProt P02769); experiment: Counterscreen for inhibitors of T-cell receptor (TCR)-CD3 interaction: Fluorescence-based biochemical high throughput dose response assay to identify inhibitors of T-cell receptor (TCR)-CD3 interaction using a TAMRA-labeled BSA probe.; format: functional
Caspase-6 = molecular target: T4, Caspase-6 (Homo sapiens, UniProt P55212); experiment: inhibition of CASP6 peptide cleavage – biochemical, VEID-R110 fluorescence, cherry-pick, dose response (AID 720632)
T4 sequence (P55212 whole entry): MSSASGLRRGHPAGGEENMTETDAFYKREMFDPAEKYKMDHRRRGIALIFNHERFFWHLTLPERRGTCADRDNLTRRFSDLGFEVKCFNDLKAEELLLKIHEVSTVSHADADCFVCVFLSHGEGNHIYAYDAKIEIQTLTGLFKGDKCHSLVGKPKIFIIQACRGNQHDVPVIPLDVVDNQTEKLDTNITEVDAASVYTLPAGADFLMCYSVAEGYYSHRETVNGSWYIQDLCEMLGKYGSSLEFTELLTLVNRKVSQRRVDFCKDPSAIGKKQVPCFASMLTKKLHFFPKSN

[18] = molecular target: T5, Histone-lysine N-methyltransferase NSD2 (Homo sapiens, UniProt O96028); format: biochemical
T5 sequence (O96028 whole entry): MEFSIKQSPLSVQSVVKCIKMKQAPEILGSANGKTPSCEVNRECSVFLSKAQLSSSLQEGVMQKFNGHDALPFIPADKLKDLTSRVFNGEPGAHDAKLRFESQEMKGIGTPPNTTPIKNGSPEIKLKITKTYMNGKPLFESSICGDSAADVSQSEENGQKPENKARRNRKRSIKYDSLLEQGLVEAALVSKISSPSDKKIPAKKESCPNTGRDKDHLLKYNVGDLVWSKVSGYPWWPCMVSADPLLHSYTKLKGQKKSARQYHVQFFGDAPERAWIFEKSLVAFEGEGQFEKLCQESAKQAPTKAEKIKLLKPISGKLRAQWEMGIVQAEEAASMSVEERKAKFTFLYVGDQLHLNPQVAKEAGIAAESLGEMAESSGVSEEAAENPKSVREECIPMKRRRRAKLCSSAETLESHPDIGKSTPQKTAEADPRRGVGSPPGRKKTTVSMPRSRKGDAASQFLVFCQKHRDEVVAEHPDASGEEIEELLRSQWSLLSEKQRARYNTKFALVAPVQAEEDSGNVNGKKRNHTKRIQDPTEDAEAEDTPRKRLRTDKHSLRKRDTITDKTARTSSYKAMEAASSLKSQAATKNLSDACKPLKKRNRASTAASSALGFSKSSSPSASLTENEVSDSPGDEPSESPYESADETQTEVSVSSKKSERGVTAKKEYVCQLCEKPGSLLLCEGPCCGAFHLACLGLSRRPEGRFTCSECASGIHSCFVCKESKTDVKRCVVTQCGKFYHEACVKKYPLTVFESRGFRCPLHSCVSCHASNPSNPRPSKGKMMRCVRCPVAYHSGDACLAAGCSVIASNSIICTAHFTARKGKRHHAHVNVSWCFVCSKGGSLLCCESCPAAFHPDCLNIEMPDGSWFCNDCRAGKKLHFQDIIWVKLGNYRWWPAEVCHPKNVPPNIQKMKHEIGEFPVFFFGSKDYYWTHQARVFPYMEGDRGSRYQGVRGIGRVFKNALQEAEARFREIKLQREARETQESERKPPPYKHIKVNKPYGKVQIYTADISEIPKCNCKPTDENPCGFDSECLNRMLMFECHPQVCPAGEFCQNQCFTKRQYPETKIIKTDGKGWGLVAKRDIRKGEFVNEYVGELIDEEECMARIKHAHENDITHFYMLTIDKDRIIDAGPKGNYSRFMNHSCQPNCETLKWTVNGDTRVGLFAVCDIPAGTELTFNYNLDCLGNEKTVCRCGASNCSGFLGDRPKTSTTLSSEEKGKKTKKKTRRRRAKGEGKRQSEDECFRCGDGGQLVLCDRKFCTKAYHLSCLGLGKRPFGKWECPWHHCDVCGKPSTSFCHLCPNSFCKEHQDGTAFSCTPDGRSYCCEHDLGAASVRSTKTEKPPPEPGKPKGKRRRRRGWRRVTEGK

[19] = HGIII-sPLA2 enzyme inhibition potency – biochemical, QFRET, IC50, dose response (AID 743457);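 also: green fluorescence rise as the enzyme cleaves BODIPY PC-A2 in liposomes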
HeLa = experiment: viability loss in HeLa cells – cell-based, ATP luminescence, cherry-pick samples, cytotoxicity control, dose response (AID 687004); format: functional; settings: Homo sapiens
HEK293 = experiment: viability loss in HEK293T cells – cell-based, ATP luminescence, cherry-pick samples, cytotoxicity control, dose response (AID 687005); format: functional; settings: Homo sapiens;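 also: cells exposed to compound for 48 hours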
[20] = HEK293 Cytotoxicity Assay Measured in Cell-Based System Using Plate Reader - 7071-01_Inhibitor_Dose_CherryPick_Activity_Set2.; format: functional

T1 sequence (Q96RJ0 whole entry): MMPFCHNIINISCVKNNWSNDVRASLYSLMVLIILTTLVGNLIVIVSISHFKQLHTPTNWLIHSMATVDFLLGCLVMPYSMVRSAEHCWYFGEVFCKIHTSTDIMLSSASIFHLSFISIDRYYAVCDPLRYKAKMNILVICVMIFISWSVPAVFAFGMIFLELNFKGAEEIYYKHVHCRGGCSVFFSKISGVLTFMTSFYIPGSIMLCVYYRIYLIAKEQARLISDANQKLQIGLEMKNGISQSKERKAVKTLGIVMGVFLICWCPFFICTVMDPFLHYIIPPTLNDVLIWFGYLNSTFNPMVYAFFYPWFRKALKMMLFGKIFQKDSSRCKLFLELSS
Sequence of Albumin (P02769 whole entry): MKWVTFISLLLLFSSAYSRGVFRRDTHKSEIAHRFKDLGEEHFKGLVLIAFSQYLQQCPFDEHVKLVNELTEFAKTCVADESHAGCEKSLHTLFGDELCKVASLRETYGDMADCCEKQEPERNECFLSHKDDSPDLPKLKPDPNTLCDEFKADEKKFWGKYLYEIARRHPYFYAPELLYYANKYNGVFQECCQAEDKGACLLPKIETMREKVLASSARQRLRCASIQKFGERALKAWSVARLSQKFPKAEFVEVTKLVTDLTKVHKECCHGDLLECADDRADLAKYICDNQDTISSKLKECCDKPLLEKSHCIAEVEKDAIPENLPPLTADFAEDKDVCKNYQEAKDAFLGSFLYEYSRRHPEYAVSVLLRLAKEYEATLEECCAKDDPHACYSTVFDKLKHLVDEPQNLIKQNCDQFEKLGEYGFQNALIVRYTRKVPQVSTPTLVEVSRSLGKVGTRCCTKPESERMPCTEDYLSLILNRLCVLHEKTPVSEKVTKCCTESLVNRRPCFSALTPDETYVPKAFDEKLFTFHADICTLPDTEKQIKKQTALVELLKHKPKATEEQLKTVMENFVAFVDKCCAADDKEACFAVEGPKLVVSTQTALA
Sequence of SWI/SNF-related matrix-associated actin-dependent regulator of chromatin subfamily A member 2 (P51531 whole entry): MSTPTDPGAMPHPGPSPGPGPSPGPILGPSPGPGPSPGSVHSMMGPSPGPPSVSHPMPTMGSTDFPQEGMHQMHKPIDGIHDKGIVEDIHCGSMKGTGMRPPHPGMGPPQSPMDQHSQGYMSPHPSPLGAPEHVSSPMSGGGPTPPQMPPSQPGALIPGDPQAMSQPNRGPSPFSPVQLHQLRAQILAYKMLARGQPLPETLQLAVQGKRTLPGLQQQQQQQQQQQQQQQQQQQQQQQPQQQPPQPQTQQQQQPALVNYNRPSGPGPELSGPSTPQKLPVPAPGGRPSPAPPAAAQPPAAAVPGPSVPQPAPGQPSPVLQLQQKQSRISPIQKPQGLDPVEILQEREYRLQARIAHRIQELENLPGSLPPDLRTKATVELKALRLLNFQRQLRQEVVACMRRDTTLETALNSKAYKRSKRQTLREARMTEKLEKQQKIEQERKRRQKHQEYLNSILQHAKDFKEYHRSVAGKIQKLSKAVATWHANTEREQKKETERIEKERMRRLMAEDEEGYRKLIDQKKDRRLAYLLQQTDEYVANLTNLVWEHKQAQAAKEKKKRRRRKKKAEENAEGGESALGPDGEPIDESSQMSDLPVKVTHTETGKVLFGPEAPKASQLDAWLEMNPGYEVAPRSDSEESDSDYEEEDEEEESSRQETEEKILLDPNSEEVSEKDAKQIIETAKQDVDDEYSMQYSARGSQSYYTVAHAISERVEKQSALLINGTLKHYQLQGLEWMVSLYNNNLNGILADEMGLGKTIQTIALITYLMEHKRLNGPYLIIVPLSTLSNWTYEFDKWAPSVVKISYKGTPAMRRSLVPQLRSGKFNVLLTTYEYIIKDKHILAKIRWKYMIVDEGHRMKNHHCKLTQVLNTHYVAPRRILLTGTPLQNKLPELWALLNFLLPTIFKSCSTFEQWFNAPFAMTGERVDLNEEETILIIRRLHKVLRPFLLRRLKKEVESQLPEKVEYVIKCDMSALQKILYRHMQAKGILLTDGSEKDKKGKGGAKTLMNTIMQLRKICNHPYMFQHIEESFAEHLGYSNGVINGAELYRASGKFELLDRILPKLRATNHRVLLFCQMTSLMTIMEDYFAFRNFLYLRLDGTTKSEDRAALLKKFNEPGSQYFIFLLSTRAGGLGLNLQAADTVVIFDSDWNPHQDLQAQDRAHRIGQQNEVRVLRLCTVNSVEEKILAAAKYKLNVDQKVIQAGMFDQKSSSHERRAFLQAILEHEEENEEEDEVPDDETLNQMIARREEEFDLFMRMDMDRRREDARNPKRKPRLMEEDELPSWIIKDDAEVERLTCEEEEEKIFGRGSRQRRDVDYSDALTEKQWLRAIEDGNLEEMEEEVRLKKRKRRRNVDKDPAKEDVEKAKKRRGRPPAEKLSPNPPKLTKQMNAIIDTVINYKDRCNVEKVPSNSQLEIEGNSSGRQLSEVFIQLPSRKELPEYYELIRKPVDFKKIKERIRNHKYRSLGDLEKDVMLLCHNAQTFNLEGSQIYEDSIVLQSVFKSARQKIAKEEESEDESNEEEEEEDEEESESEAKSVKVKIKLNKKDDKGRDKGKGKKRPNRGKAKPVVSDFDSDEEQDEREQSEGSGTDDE
Sequence of FAD-linked sulfhydryl oxidase ALR (P55789 whole entry): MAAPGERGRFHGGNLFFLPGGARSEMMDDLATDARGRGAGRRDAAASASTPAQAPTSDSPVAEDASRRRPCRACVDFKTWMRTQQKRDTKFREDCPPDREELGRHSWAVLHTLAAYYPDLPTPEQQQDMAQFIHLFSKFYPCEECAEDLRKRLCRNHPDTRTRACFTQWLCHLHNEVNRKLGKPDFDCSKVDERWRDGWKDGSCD
Sequence of Protein Wnt-3a (P27467 whole entry, the tested form may be a part): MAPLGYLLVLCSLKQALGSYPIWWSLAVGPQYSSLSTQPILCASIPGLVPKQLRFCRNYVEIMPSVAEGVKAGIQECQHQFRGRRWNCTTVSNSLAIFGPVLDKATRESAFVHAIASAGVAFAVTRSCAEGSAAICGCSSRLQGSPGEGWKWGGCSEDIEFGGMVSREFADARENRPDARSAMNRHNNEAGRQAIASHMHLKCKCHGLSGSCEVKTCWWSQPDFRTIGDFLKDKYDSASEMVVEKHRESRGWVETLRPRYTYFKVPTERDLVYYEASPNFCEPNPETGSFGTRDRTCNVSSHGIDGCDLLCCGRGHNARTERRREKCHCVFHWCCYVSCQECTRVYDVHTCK

Cc1ccc(/C=C2/CNC/C(=C/c3ccc(C)cc3)C2=O)cc1
AC50 [1]: 10.3 µM (active)

OC1CCCN(Cc2ccc3ccc4cccc5ccc2c3c45)C1 (stereo not given)
EC50 [2]: 8.96 µM (active)
EC50 [3]: 8.21 µM (active)
EC50 [4]: > 10.1 µM (inactive)
EC50 [5]: > 91.2 µM (inactive)

O=C(CCCCl)N1CCc2[nH]c3ccccc3c2C1
IC50 (cells [6]): > 29.9 µM (inactive)
EC50 [7]: 0.492 µM (active)
IC50 [8]: 2.05 µM (active)
EC50 (cells [9]): > 29.9 µM (inactive)

CCCCNc1cc(NC(=O)c2ccccc2)ncn1
IC50 (Protein Wnt-3a): > 21.8 µM (inactive)

Cc1ccc2nc(-c3ccc(O)c(O)c3)cn2c1
EC50 [10]: > 75 µM (not active)
EC50 (cells [11]): > 350 µM (not active)
EC50 [12]: 9.7 µM (active)
EC50 (cells [13]): 5.03 µM (active)
AC50 [14]: 0.885 µM (active)
AC50 [15]: 4.2 µM (active)
AC50 [16]: > 70 µM (inactive)
AC50 [17]: 2.47 µM (active)
IC50 (Albumin): > 94.1 µM (inactive)
AC50 (Caspase-6): 12 µM (active)
AC50 [18]: > 20 µM (inactive)

CCc1c(-c2nnc(S)n2Cc2ccccc2)csc1C
IC50 [19]: > 122 µM (inactive)

C[C@H]1CCCCO[C@H](CN(C)C(=O)Nc2ccc(F)cc2)[C@@H](C)CN([C@@H](C)CO)C(=O)c2cc(NS(=O)(=O)c3ccc(Cl)cc3)ccc2O1
AC50 (HeLa): 25.5 µM (active)
AC50 (HEK293): 30.6 µM (active)
AC50 [20]: 30.6 µM (active)

— ChEMBL document CHEMBL1201862, “PubChem BioAssay data set” (2004)
